Patent US20100184703A1, “USE OF PEPTIDE DERIVATIVES FOR TREATING PATHOLOGIES RESULTING FROM ISCHEMIA” (CHIESI FARMACEUTICI S.p.A., priority 2007, published 2010)
“Also recorded” adds a separate entry of the source. Peptide text beside a SMILES is read from it. * marks the point of attachment. X1 = COC(=O)CC(N*)C(=O)COc1c(F)cccc1F; Quinaldoyl = O=C(c1ccc2ccccc2n1)*

Experiments:
caspase-2 [1] = molecular target: T1, caspase-2 (Rattus norvegicus, UniProt P55215); test: Dosage of caspase-2 activity in myocardial tissue, chronic ischemia (PMI) model; type: in vivo; settings: PMI 72 h; for caspase-2 activity: pre-treated rats, left ventricle (VG) and septum, 1 mg/kg
T1 construct: Each fragment of tissue was rapidly frozen in liquid nitrogen and kept at −80° C; from tissue; host or cells: rat myocardium (left ventricle, right ventricle, septum, apex) extracts
T1 sequence (P55215 170-325 limits assumed): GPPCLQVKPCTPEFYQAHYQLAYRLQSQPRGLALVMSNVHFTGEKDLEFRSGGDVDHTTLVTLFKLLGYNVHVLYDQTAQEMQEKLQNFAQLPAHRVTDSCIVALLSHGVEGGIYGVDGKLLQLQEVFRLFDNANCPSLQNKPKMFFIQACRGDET
T1 sequence (P55215 348-452 limits assumed): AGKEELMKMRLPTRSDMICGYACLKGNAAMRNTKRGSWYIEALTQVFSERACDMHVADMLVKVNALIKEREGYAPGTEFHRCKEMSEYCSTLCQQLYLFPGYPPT

caspase-2 [2] = molecular target: T1, caspase-2; test: Dosage of caspase-2 activity in myocardial tissue, reperfusion ischemia (IR) model; type: in vivo; settings: administered 15 min before the reperfusion, VGZI and septum
caspase-3 = molecular target: T2, caspase-3 (Rattus norvegicus, UniProt P55213); test: Dosage of caspase-3 activity in myocardial tissue, reperfusion ischemia (IR) model; type: in vivo; settings: administered 15 min before the reperfusion, VGZI, VD, Apex and VGZNI
T2 construct: from tissue; host or cells: rat myocardium (left ventricle, right ventricle, septum, apex) extracts
T2 sequence (P55213 29-175 limits assumed): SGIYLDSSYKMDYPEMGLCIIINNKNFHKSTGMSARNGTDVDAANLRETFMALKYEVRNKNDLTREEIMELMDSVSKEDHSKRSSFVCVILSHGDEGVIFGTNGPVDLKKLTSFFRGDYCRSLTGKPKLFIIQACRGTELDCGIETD
T2 sequence (P55213 176-277 limits assumed): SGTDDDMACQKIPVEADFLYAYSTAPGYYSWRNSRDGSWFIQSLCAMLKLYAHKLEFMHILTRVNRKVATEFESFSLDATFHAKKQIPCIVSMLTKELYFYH
Method: The analyses were performed on 2 myocardial ischemia models: a chronic ischemia model and an acute ischemia model, followed by myocardial reperfusion after 30 min of occlusion.
Said models were realized with Wistar male rats (180-220 g). The coronary artery was ligatured according to Pfeffer et al protocol.
Briefly, the rats were anaesthetized by intraperitoneal administration of a mixture of Ketamine (150 mg/kg) and Xylazine (15 mg/kg), then intubated and mechanically ventilated. The animals were submitted to a left and median thoracotomy. An occlusion of the coronary artery was done with a silk wire (size: 7.0) at the more proximal point and below the auricle.
In the case of reperfusion ischemia model (IR model), the silk wire was untied after 30 min of occlusion. The artery was then cleared and the myocardial territory reperfused. The control animals (sham operated) were submitted to the same surgery protocol as the above animals, but the silk wire was passed under the coronary without making any ligature.
The animals were sacrificed by a pentobarbital lethal injection. The heart was excised and perfused about 5 min by Langerdorf reverse way using a calcium-free washing solution (in mM: NaCl 117 mM, KCl 5.7, NaHCO3 4.4, KH2PO4 1.5, MgCl2 1.7, HEPES 21, glucose 11, taurine 20, pH 7.2 adjusted with NaOH). The heart was then placed into a dissection tank and the different myocardial territories were taken (i.e. right ventricle (VD), septum, Apex, left ventricle (selectively in infarcted area (VGZI) and non-infarcted area (VGZNI)). Each fragment of tissue was rapidly frozen in liquid nitrogen and kept at −80° C.
Each tissue was then thawed and about 1-2 mm^3 was taken. […]
The supernatant was taken and divided into 2 tubes for of each sample. The tubes were placed at −80° C. before performing the spectrophotometric proteic dosage (BCA: cupper (II) sulphate+solution A of bicinchronic acid, DO measured at 550 nm) in transparent, with flat bottom, 96-well plates. […]

TNFα, IL1β, IL10 = test: Multiplex assay (Luminex) of circulating cytokines after ischemia-reperfusion; type: in vivo, rat; settings: IR model; for circulating level of TNFα: injected 15 min prior to the reperfusion, compared to sham-operated; for IL-1β elevation / IL-10 elevation: within the first 24 hours of reperfusion
Method: Another series of experiments was conducted in the rat model of ischemia-reperfusion. Ischemia and reperfusion is well known to trigger an acute inflammatory process in animal model as well as in human. In our rat model, at the euthanasia, blood sample were collected in order to measure the inflammatory response on sera. This was performed by multiplex assay (Luminex technology). Three parameters were simultaneously measured at various time after myocardial reperfusion the pro inflammatory cytokines TNFα and IL1β as well as the anti-inflammatory cytokine IL10. […] B-C. […] In summary, caspase 2 inhibition prevents the acute inflammatory response occurring during the first 24 hours after myocardial reperfusion. *p<0.05 compared to sham-operated animals, n≧5 animals.

[3] = system: ANF, BNP, fibronectin, β-MHC, TNFR1, TNFR2, TNFα, caspase-2 mRNA; test: Quantitative RT-PCR of heart failure, fibrosis, hypertrophy and TNFα signaling markers after ischemia/reperfusion; type: in vivo, rat; settings: IR model; for mRNA expression level of TNFα / mRNA expression level of TNFα receptor 1 (TNFR1) / mRNA expression level of TNFα receptor 2 (TNFR2) / mRNA expression level of caspase-2: increase in vehicle-injected animals; for mRNA expression level of β-Myosin Heavy Chain (β-MHC): marker for hypertrophy development; for mRNA expression level of fibronectin: marker of fibrosis development; for mRNA expression level of Atrial Natriuretic Factor (ANF) / mRNA expression level of brain natriuretic peptide (BNP): marker of heart failure
Method: In a second series of experiments, quantitative RT-PCR was performed to evaluate the level of expression of 2 markers of heart failure, Atrial Natriuretic Factor (ANF) and Brain Natriuretic Factor (BNP) as well as a marker of myocardial fibrosis, fibronectine, and myocardial hypertrophy, βMHC. […] B. mRNA expression levels of fibronectin a marker of fibrosis development, and β-Myosin Heavy Chain (β-MHC) a marker for hypertrophy development

| Compound | caspase-2 activity (caspase-2 [1]) | caspase-2 basal activity (caspase-2 [1]; right ventricular (RV)) | caspase-2 activity (caspase-2 [2]) | caspase-3 activity (caspase-3) | circulating level of TNFα (TNFα, IL1β, IL10) | IL-1β elevation (TNFα, IL1β, IL10) | IL-10 elevation (TNFα, IL1β, IL10) | mRNA expression level of TNFα [3] | mRNA expression level of TNFα receptor 1 (TNFR1) [3] | mRNA expression level of TNFα receptor 2 (TNFR2) [3] | mRNA expression level of caspase-2 [3] | mRNA expression level of β-Myosin Heavy Chain (β-MHC) [3] | mRNA expression level of fibronectin [3] | mRNA expression level of Atrial Natriuretic Factor (ANF) [3] | mRNA expression level of brain natriuretic peptide (BNP) [3] | caspase-2 activity (caspase-2 [2]; listed as QVDOPH) | caspase-3 activity (caspase-3; listed as QVDOPH) |
| --- | --- | --- | --- | --- | --- | --- | --- | --- | --- | --- | --- | --- | --- | --- | --- | --- | --- |
| COC(=O)CC(NC(=O)[C@H](C)NC(=O)[C@@H](NC(=O)[C@H](CC(=O)OC)NC(=O)[C@@H](NC(=O)c1ccc2ccccc2n1)C(C)C)C(C)C)C(=O)COc1c(F)cccc1F (stereo partly drawn) [D1, (3S,6S,9S,12S)-methyl 15-(2-(2,6-difluorophenoxy)acetyl)-3,9-diisopropyl-6-(2-methoxy-2-oxoethyl)-12-methyl-1,4,7,10,13-pentaoxo-1-(quinolin-2-yl)-2,5,8,11,14-pentaazaheptadecan-17-oate] (Quinaldoyl-VD(OMe)VA-X1) | inhibited | weak inhibition | normalization of the activity; also recorded: specifically inhibits | normalization of the activity; also recorded: prevents the further activation | not significantly different | prevented | prevented | prevented | prevented | prevented | prevented | blocked | blocked | comparable to sham-operated animals | comparable to sham-operated animals |  |  |
| CC(C)[C@H](NC(=O)c1ccc2ccccc2n1)C(=O)N[C@@H](CC(=O)O)C(=O)COc1c(F)cccc1F [Q-VD-OPH] | inhibited |  | inhibits the activity of both caspases | inhibits the activity of both caspases | not significantly different | prevented | prevented | prevented | prevented | prevented | prevented | blocked | blocked | comparable to sham-operated animals | comparable to sham-operated animals | normalization of the activity | normalization of the activity |
